Assay [1] relates to Coptotermes formosanus Shiraki. The assay can be described thus: Test Example 1: termite-killing test on treated filter paper. The assay is classed as in vivo. The note with it: mortality class; 1 ml of a 500 ppm solution on filter paper, seven days after inoculation, triplicate group of 10 insects. As for the experimental part: A filter paper was spread in a glass dish having a diameter of 9 cm, onto which was dropped 1 ml of a 500 ppm solution of the ant controller of the present invention. Then, the filter paper was inoculated with Coptotermes formosanus Shiraki. Seven days after the inoculation, percentage of dead insects was investigated, from which mortality was calculated. The test was carried out with triplicate group of 10 insects.

For assay [2], the system named is fireant (Solenopsis geminata). The assay can be described thus: Test Example 2: drench treatment of fireant nests. The assay is classed as in vivo. Further details: key: A: Nest is completely destructed or activity of the nest is extremely low.; B: Activity of the nest is exhibited.; C: High activity of the nest is exhibited.; D: Activity of the nest is extremely high. The note with it: 1 g of the active ingredient per one nest, 14 days after the treatment. The method, then: The ant controller of the present invention was applied to nests (anthill) of fireant (Solenopsis geminata) with drench treatment, in terms of 1 g of the active ingredient per one nest. 14 Days after the treatment of the ant controller, the activity of the nests was evaluated according to the following criterion. The test was carried out with one block per one nest.

From patent US8361487B1, “Ant controllers and method for application thereof” (BASF Aktiengesellschaft, priority 1999, dated 2013) come the findings set out here.

As for `N#Cc1ccc(CC(NNC(=O)Nc2ccc(OC(F)(F)F)cc2)c2cccc(C(F)(F)F)c2)cc1` (centres unmarked) [Compound 96], the Termite-killing effect result in assay [1] is “A (100)”. The “activity of the nests (effect)” value in assay [2] was “A”.
